Reference: patent US10377647B2, “Systems and methods for use of water with switchable ionic strength” (Queen's University at Kingson, priority 2010, dated 2019)
Like-named read-outs stand apart in the source and are kept apart here. One block for each compound: values may come before it.

Key:
[1] = Miscibility of diamines and triamines with water before and after CO2; format: physicochemical; settings: 5:1 w/w water:additive; for miscibility with water After addition of CO2: CO2 90 min; for miscibility with water Before addition of CO2: room temperature
Experimental: A 5:1 w/w solution of water and the liquid additive (total volume 5 mL) were mixed together in a glass vial at room temperature. Whether the mixture formed one or two liquid phases was visually observed. Then CO2 was bubbled through the mixture via a single narrow gauge steel needle at a flow rate of ˜5 mL min^−1 for 90 min. Whether the mixture formed one or two phases was visually observed.

[2] = format: physicochemical
Experimental: Specifically, a 1:1:1 (v/v/v) mixture of DBU, water and compound was added to a six dram vial containing a magnetic stirrer and fitted with a rubber septa. […] A second narrow gauge steel needle was inserted to allow venting of the gaseous phase.
When the compound was THF, a single phase miscible liquid mixture was observed.

[3] = Solution conductivity before and after CO2; format: physicochemical
Experimental: The solution conductivities of the materials given below were measured. The mass of each material indicated was weighed into a 150 mL beaker charged with a stir bar along with 100 mL of ultra pure water. The solutions were stirred until visibly dissolved and their conductivity measured. […] All solutions were left to stir overnight to test reproducibility. Solution conductivities were re-recorded giving little change in values. CO2 was bubbled at 10 psi through a fine glass frit tube (to make bubble size as small as possible for greater surface area and therefore faster carbonation) with each solution for 30 minutes. In the case of TBAB and functionalized PMMA, significant amounts of bubbling were observed. Solution conductivities were re-recorded.

[4] = Reversible protonation monitored by conductivity, fritted glass apparatus; format: physicochemical
Experimental: 1:1 v/v solutions of the various additives and distilled, deionised water were prepared in six dram glass vials and transferred to a fritted glass apparatus which acted as a reaction vessel. The fritted glass apparatus consisted of a long narrow glass tube leading to a fine glass frit having a diameter of approximately 4 cm. The other end of the glass frit was connected to a cylindrical glass tube which held the solution of the additive during contacting with the trigger gas. This apparatus allowed a multiple source of trigger gas bubbles to contact the solution, compared to the single point source of Example 5.
A trigger gas chosen from CO2, air or nitrogen was bubbled through the solution via the glass frit at a flow rate of 110 mL min^−1 as measured by a J&W Scientific ADM 2000 Intelligent Flowmeter (CA, USA). For each conductivity measurement, the solution was transferred back to a six dram vial, cooled to 298 K and measured in triplicate. Conductivity measurements were performed using a Jenway 470 Conductivity Meter (Bibby Scientific, NJ, US) having a cell constant of 1.02 cm^−1.

[5] = Degree of protonation of methylated spermine by carbonated water, 1H NMR; format: physicochemical; settings: 0.1 M in D2O, room temperature, CO2
Text: (§1) The spectrum was then acquired.
(§2) This process was repeated.

[6] = 4 M solution; cited from earlier work
[7] = Switchable osmotic pressure (Zimm-Meyerson osmometer, hydrostatic pressure); format: physicochemical
Experimental: The switchable osmotic pressure measurements were conducted on a Zimm-Meyerson osmometer using Sterlitech UTC-80LB toray flat sheet membranes. A 0.1% (w/v) switchable polyamine solution in water was made by dissolving 20 mg of the corresponding polyamine in 20 mL deionized H2O. […] The system was closed with a lid and allowed to reach equilibrium overnight. Measurements of the capillary tube and the control capillary were taken. The draw solution was then taken out of the cell and transferred into a graduated cylinder. Both the draw solution and the solution of the outer cell were carbonated by bubbling CO2 with a gas dispersion tube for 1 h. The draw solution was transferred back into the glass cell of the osmometer, the system was closed and held under an atmosphere of CO2. A constant flow of CO2 was maintained using two gauche needles, one of them connected to a CO2 source with a flow rate of 10 ml/min. The heights taken were height differences of the capillary tube connected to the cell and the control capillary tube. Based on these heights the hydrostatic pressure was calculated using the equation: Π=ρhg where Π is the hydrostatic pressure, ρ is the density of the solution, h is the height of the water column and g is the force of gravity. Hydrostatic pressure is taken to be proportional to osmotic pressure of the solution at equilibrium.

[8] = Viscosity with and without CO2 (capillary viscometer); format: physicochemical; settings: 104.6 mg in 10 mL H2O
Experimental: In order to study the use of switchable water additives in a method and system for viscosity control, a switchable additive or other molecule of interest was placed in a 50 mL round-bottom flask equipped with a 1 cm magnetic stir-bar and placed on a stir-plate. […] The solution was then transferred in to a Technical Glass Products, Inc. C. F. Opage viscometer with either a 100 or 200 capillary tube. The measurements were taken at room temperature (i.e., from about 15-30° C.) and repeated twice. The solution was transferred back into the round bottom flask and CO2 was introduced to the mixture by bubbling for 30 minutes at a flow rate of 80 ml/min. The carbonated solution was then put into the viscometer and the viscosity was measured three times. The viscosity in centistokes (cS) was calculated from the times the solution took to run through the viscometer.

[9] = Degree of protonation by CO2 in D2O by 1H NMR; format: physicochemical; settings: 0.1 M in D2O
Text: as §1, §2

[10] = Zeta potential of suspended clay particles; format: physicochemical
Experimental: (§3) Clay fines were weighed and placed into individual vials (0.025 g, Ward's Natural Science Establishment). Kaolinite and montmorillonite were used as received, but illite clay was ground into a powder using a mortar and pestle. Solutions containing additives were made with deionized water (18.2 MΩ/cm, Millipore) and 10 mL was added to the clay fines. A suspension was created using a vortex mixer and subsequently dispensed into a folded capillary cell. The zeta potential was measured using a Malvern Zetasizer instrument. The errors reported on the zeta potential values were the standard deviations of the zeta potential peaks measured.
(§4) Unless specified, all carbon dioxide treatments were conducted with the aqueous solutions prior to addition to the clay fines. For applicable measurements, ultra pure carbon dioxide (Supercritical CO2 Chromatographic Grade, Paxair) was bubbled through the solutions using a syringe.

[11] = Zeta potential of suspended clay particles; format: physicochemical; settings: for Zeta Potential: kaolinite clay
Experimental: as §3, §4
Another experiment was performed in which CO2 was bubbled through a 1 mM aqueous solution of TMDAB that already contained clay fines (a method referred to as “switching in situ”).

[12] = pH of 5% (w/v) kaolinite suspensions; format: physicochemical
Experimental: The pH of the following 5% (w/v) kaolinite suspensions were measured: CO2 blank and 1 mM TMDAB and 10 mM TMDAB after CO2-treatment. To investigate the effect of pH on suspension settling behaviour, 5% (w/v) kaolinite suspensions were prepared, and the pH of each suspension was adjusted with HCl and NaOH to match the pH of corresponding treatment conditions. To investigate the effect of ionic strength on suspension settling behaviour, pH was again corrected to match the pH of corresponding treatment conditions, and ionic strength was adjusted with NaCl or ammonium sulphate, assuming all basic sites on the diamine were protonated.

[13] = 1 mM TMDAB + 1 h CO2 + […] N2 at 70° C.

- miscibility with water After addition of CO2 [1]: miscible
- miscibility with water Before addition of CO2 [1]: miscible
Structure (SMILES): CN(C)Cc1cc(CN(C)C)cc(CN(C)C)c1 [1,3,5-C6H3(CH2NMe2)3, N,N,N′,N′,N″,N″-1,3,5-benzenetrimethanamine]

- miscibility with water After addition of CO2 [1]: miscible
- miscibility with water Before addition of CO2 [1]: immiscible
Structure (SMILES): CN(C)CC1CC(CN(C)C)CC(CN(C)C)C1 (stereo not shown) [CHTDMA, 1,1′,1″-(cyclohexane-1,3,5-triyl)tris(N,N-dimethylmethanamine)]

Structure (SMILES): C1CCC2=NCCCN2CC1 [DBU, 1,8-diazabicyclo-[5.4.0]-undec-7-ene]
- solubility of non-ionic amidine form in water [2]: soluble in water

- C after 30 mins CO2 ([3]; CO2 bubbled at 10 psi, 30 minutes): 3360 μS/cm
- Initial C ([3]; mass as listed in 100 mL ultra pure water): 398 μS/cm
Structure (SMILES): CN(C)CCCN [H2N(CH2)3NMe2, 3-dimethylamino-1-propylamine]

- conductivity of ionic form solution after N2 flushing ([4]; 1:1 v/v H2O:amine, N2 at 80° C., after 20 minutes): close to zero
Structure (SMILES): CN(C)CCN(C)CCN(C)CCN(C)C [HMTETA, 1,1,4,7,10,10-hexamethyl triethylenetetramine]

- degree of protonation [5]: 93%
Structure (SMILES): CN(C)CCCN(C)CCCCN(C)CCCN(C)C [MeSpe, N^1,N^1′-(butane-1,4-diyl)bis(N^1,N^3,N^3-trimethylpropane-1,3-diamine)]

Structure (SMILES): [Cl-].[Cl-].[Mg+2] [MgCl2]
- osmotic pressure [6]: 800 atm

Structure (SMILES): CN(C)C1CCCCC1 [N,N-dimethylcyclohexylamine]
- hydrostatic pressure without CO2 ([7]; control experiments, height before CO2 treatment): 580 Pa
- hydrostatic pressure with CO2 ([7]; nominal 0.1% (w/v), carbonated 1 h, CO2 atmosphere): 1550 Pa
- pressure increase ([7]; ratio with CO2 / without CO2): 2.7
- viscosity without CO2 [8]: 1.0 cS
- viscosity with CO2 ([8]; CO2 30 minutes): 1.0 cS

- miscibility with water After addition of CO2 [1]: miscible
- miscibility with water Before addition of CO2 [1]: immiscible
Structure (SMILES): CCCN(CC)CCCCN(CC)CCC [N,N′-diethyl-N,N′-dipropyl-1,4-diaminobutane]

- miscibility with water After addition of CO2 [1]: immiscible
- miscibility with water Before addition of CO2 [1]: immiscible
Structure (SMILES): CCCN(CCC)CCCCN(CCC)CCC [Pr2NCH2CH2CH2CH2NPr2, N,N,N′,N′-tetrapropyl-1,4-diaminobutane]

- miscibility with water After addition of CO2 [1]: miscible
- miscibility with water Before addition of CO2 [1]: immiscible
Structure (SMILES): CCN(CC)CCCCN(CC)CC [TEDAB, N,N,N′,N′-tetraethyl-1,4-diaminobutane]

- % deprotonated ([9]; 2 hours N2 bubbling at 75° C.): 98%
- % protonation ([9]; by 10 minutes CO2): 49%
Structure (SMILES): OCCN(CCO)CCN(CCO)CCO [THEED, N,N,N′,N′-tetrakis(2-hydroxyethyl) ethylenediamine]

- Zeta Potential ([10]; 1 mM additive + […] CO2, illite clay): −4.69 ± 4.23 mV
- Zeta Potential ([10]; 1 mM additive + […] CO2, montmorillonite clay): −3.20 ± 4.61 mV
- Zeta Potential ([10]; 1 mM additive, illite clay): −39.5 ± 6.32 mV
- Zeta Potential ([10]; 1 mM additive, montmorillonite clay): −40.2 ± 6.87 mV
- Zeta Potential ([10]; 10 mM additive + […] CO2, illite clay): −3.12 ± 7.16 mV
- Zeta Potential ([10]; 10 mM additive + […] CO2, montmorillonite clay): 9.07 ± 4.18 mV
- Zeta Potential ([10]; 10 mM additive, illite clay): −48.2 ± 7.44 mV
- Zeta Potential ([10]; 10 mM additive, montmorillonite clay): −23.6 ± 5.68 mV
- Zeta Potential ([10]; 0.8 molal additive + 1 h CO2, illite clay): −4.56 mV
- Zeta Potential ([10]; 0.8 molal additive + 1 h CO2, montmorillonite clay): −5.52 mV
- Zeta Potential ([10]; 0.8 molal additive, illite clay): −26.0 ± 3.92 mV
- Zeta Potential ([10]; 0.8 molal additive, montmorillonite clay): −25.8 ± 4.14 mV
- Zeta Potential, Switching externally ([11]; 1 mM TMDAB): −39.6 ± 6.68 mV
- Zeta Potential, Switching in situ ([11]; 1 mM TMDAB): −38.9 ± 8.69 mV
- Zeta Potential, Switching externally ([11]; 1 mM TMDAB + 1 h CO2): −5.03 ± 4.46 mV
- Zeta Potential, Switching in situ ([11]; 1 mM TMDAB + 1 h CO2): −0.31 ± 4.15 mV
- Zeta Potential, Switching externally [11, 13]: −25.0 ± 5.84 mV
- Zeta Potential, Switching in situ [11, 13]: −32.5 ± 6.38 mV
- Zeta Potential ([11]; 1 mM additive + […] CO2): −5.03 ± 4.46 mV
- Zeta Potential ([11]; 1 mM additive): −39.6 ± 6.68 mV
- Zeta Potential ([11]; 10 mM additive + […] CO2): −3.35 ± 8.49 mV
- Zeta Potential ([11]; 10 mM additive): −50.7 ± 13.1 mV
- Zeta Potential ([11]; 0.8 molal additive + 1 h CO2): 2.29 mV
- Zeta Potential ([11]; 0.8 molal additive): −17.4 ± 3.92 mV
- reduction of conductivity ([4]; 1:1 v/v H2O:amine switched with CO2, 90 minutes at 80° C., N2 through glass frit): approximately 95%
- pH ([12]; kaolinite Sample 2, 1 mM TMDAB): 7.13
- pH ([12]; kaolinite Sample 2, 1 mM TMDAB + CO2): 4.75
- pH ([12]; kaolinite Sample 2, 10 mM TMDAB): 10.41
- pH ([12]; kaolinite Sample 2, 10 mM TMDAB + CO2): 5.95
Structure (SMILES): CN(C)CCCCN(C)C [TMDAB, N,N,N′,N′-tetramethyl-1,4-diaminobutane]

Structure (SMILES): CCCC[N+](CCCC)(CCCC)CCCC.[Br-] [[^nBu4N]Br, Tetra-n-butylammonium bromide]
- C after 30 mins CO2 [3]: 1781 μS/cm
- Initial C [3]: 1892 μS/cm

Structure (SMILES): OC[C@H]1O[C@@](CO)(O[C@H]2O[C@H](CO)[C@@H](O)[C@H](O)[C@H]2O)[C@@H](O)[C@@H]1O [sucrose]
- osmotic pressure [6]: about 130 atm
